Measurements as given in patent publication US4352807A, “Hexahydro-trans-pyridoindole neuroleptic agents” (Pfizer Inc., priority 1980, dated 1982).
Like-named read-outs stand apart in the source and are kept apart here.

Assays:
[1] = test system: amphetamine-induced symptoms (characteristic amphetamine behaviour of cage movement); assay: Antagonism of amphetamine symptoms in rats (rat amphetamine test); assay type: in vivo; conditions: block of cage movement in 50% of rats; for ED50, rat amphetamine test, 1 hr.: 60 min; for ED50, rat amphetamine test, 5 hr.: 300 min; for ED50, rat amphetamine test, 24 hr.: 1440 min; for ED50: Rattus norvegicus, sc
From the text: The tranquilizing activity of the derivatives may be determined using the well known standard procedure-antagonism of amphetamine-induced symptoms in rats.
The effects of the above examples of Derivatives on prominent amphetamine-induced symptoms were studied in rats by a rating scale modeled after the one reported by Quinton and Halliwell, and Weissman. Rats were placed individually in a covered plastic cage measuring approximately 26 cm.×42 cm×16 cm. After a brief period of acclimation of the cage, the rats in each group, commonly, five animals per dose level, were treated subcutaneously (s.c.) with a selected dose of the Derivative to be tested. They were then treated 1, 5 and 24 hrs. later with d-amphetamine sulfate, 5 mg./kg. intraperitoneally (i.p.). […] The time of rating chosen coincides with the peak action of amphetamine which is 60-80 min. after dosing.

dopamine receptors = biological target: T1, dopamine receptors (Rattus norvegicus, UniProt P61169); assay: Inhibition of ^3 H-spiroperidol binding to dopamine receptors (rat corpus striatum homogenate); parameters: species or system rat (Sprague-Dawley CD); conditions: 0.5 nM ^3 H-spiroperidol, 10 min at 37° C.
T1 construct: brains were immediately dissected on an ice-cold glass plate to remove corpus striatum; from tissue; host or cells: rat corpus striatum, washed homogenate (Sprague-Dawley CD males)
Experimental: The procedure was as follows:
Rats (Sprague-Dawley CD males, 250-300 g., Charles River Laboratories, Wilmington, Mass.) were decapitated, and brains were immediately dissected on an ice-cold glass plate to remove corpus striatum (~100 mg./brain). Tissue was homogenized in 40 volumes (1 g.+40 ml). of ice-cold 50 mM. […] The tissue suspension was placed in a 37° C. water bath for 5 minutes to insure inactivation of tissue monoamine oxidase and then kept on ice until used. The incubation mixture consisted of 0.02 ml. inhibitor solution (the desired concentration of the derivative to be tested in stock solution). […] Tubes were incubated in sequence for 10 minutes at 37° C. in groups of three, after which 0.9 ml. of each incubation tube was filtered through Whatman FG/B filters using a high vacuum pump. Each filter was placed in a scintillation vial, 10 ml. of liquid scintillation fluor was added and each vial was vigorously vortexed for about five seconds. Samples were allowed to stand over night, until filters were translucent, vortexed again and then counted 1.0 minute for radioactivity. Binding was calculated as femtomales (10^-15 moles) of ^3 H-spiroperidol bound per mg. protein. Controls (vehicle or 1 butaclamol, 10^-7 M; 4.4 mg. dissolved in 200 μl. glacial acetic acid, then diluted to 2.0 ml. with DDW for 10^-4 M stock solution, kept refrigerated), blank (d-butaclamol, 10^-7 M; (4.4 mg./2 ml.) for 10^-4 M stock solution, same protocol as 1-butaclamol); and inhibitor solutions were run in triplicate. […] Insoluble drugs were dissolved in 50% ethanol (1% ethanol incubation).
**DDW=Double Distilled Water.

[2] = s.c., d-amphetamine sulfate 5 mg/kg i.p. 1 hr after treatment
[3] = s.c., d-amphetamine sulfate 5 mg/kg i.p. 5 hr after treatment
[4] = s.c., d-amphetamine sulfate 5 mg/kg i.p. 24 hr after treatment
[5] = 1 h, s.c., d-amphetamine sulfate 5 mg/kg i.p. 1 hr after treatment, read-out: ED50, rat amphetamine test, 1 hr.
[6] = 5 h, read-out: ED50, rat amphetamine test, 5 hr., s.c., d-amphetamine sulfate 5 mg/kg i.p. 5 hr after treatment
[7] = 24 h, s.c., d-amphetamine sulfate 5 mg/kg i.p. 24 hr after treatment, read-out: ED50, rat amphetamine test, 24 hr.

T1 sequence (P61169 whole entry): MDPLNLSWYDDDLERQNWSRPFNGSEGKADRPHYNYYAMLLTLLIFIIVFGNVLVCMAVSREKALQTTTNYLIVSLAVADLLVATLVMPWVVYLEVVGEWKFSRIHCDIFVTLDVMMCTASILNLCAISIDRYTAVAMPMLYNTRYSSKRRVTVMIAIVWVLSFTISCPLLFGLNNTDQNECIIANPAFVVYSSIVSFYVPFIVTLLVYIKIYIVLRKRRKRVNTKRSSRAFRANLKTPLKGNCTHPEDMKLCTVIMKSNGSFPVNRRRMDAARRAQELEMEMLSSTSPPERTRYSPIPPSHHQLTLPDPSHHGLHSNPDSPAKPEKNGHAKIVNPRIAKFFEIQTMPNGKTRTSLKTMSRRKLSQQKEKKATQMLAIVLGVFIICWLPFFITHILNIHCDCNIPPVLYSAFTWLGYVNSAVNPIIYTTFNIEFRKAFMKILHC

## CC(=O)NCCCCN1CCC2C(C1)c1cc(F)ccc1N2c1ccc(F)cc1 (single isomer, unassigned; (+)) [Example 11, (+) enantiomer of 2-(N--acetyl-1-'-amino-n-but-4-yl)]
[1]; [2]
  ED50, rat amphetamine test, 1 hr.: 0.02 mg/kg
[1]; [3]
  ED50, rat amphetamine test, 5 hr.: 0.006 mg/kg
[1]; [4]
  ED50, rat amphetamine test, 24 hr.: 0.28 mg/kg
Dopamine receptors
  IC50: 4.7 nM

## CC(=O)NCCCCCN1CC[C@H]2[C@H](C1)c1cc(F)ccc1N2c1ccc(F)cc1 (relative stereo) [Example 8, (±) 2-(N--acetyl-1'-amine-n-pent-5'-yl)]
[1]; [5]
  ED50: 0.01 mg/kg
[1]; [6]
  ED50: 0.004 mg/kg
[1]; [7]
  ED50: 0.4 mg/kg
Dopamine receptors
  IC50: 9 nM

## CC(=O)NCCCCN1CCC2C(C1)c1cc(F)ccc1N2c1ccc(F)cc1 (single isomer, unassigned; (-)) [Example 12, (-) enantiomer of 2-(N--acetyl-1'-amino-n-but-4'-yl)]
[1]; [2]
  ED50, rat amphetamine test, 1 hr.: 1 mg/kg
[1]; [3]
  ED50, rat amphetamine test, 5 hr.: 1 mg/kg
[1]; [4]
  ED50, rat amphetamine test, 24 hr.: 1 mg/kg
Dopamine receptors
  IC50: 1000 nM

## Cc1ccc(S(=O)(=O)NCCCCN2CC[C@H]3[C@H](C2)c2cc(F)ccc2N3c2ccc(F)cc2)cc1 (relative stereo) [Example 16, (±) 2-(N--p-toluenesulfonyl-1'-amino-n-but-4'-yl)]
[1]; [5]
  ED50: 1 mg/kg
[1]; [6]
  ED50: 1 mg/kg

## CC(=O)NCCCCCCCN1CC[C@H]2[C@H](C1)c1cc(F)ccc1N2c1ccc(F)cc1 (relative stereo) [Example 10, (±) 2-(N--acetyl-1'-amino-n-hept-7'-yl)]
[1]; [5]
  ED50: 0.09 mg/kg
[1]; [6]
  ED50: 0.018 mg/kg
[1]; [7]
  ED50: 0.05 mg/kg
Dopamine receptors
  IC50: 9 nM

## CC(=O)NCCN1CC[C@H]2[C@H](C1)c1cc(F)ccc1N2c1ccc(F)cc1 (relative stereo) [Example 6, 2-(N-acetyl-2-aminoethyl)-5-(p-fluorophenyl)-8-fluoro-2,3,4,4a,5,9b-hexahydro-trans-4a,9b-1(H)-pyrido[4,3-b]indole]
[1]; [5]
  ED50: 0.11 mg/kg
[1]; [6]
  ED50: 0.36 mg/kg
[1]; [7]
  ED50: 1 mg/kg
Dopamine receptors
  IC50: 16 nM

## CC(=O)NCCCCN1CC[C@H]2[C@H](C1)c1ccccc1N2c1ccccc1 (relative stereo) [Example 17, (±) 2-(N--acetyl-1'-amino-n-but-4'-yl)-5-phenyl-2,3,4,-4a,9b-hexahydro-trans-4a,9b-1(H)-pyrido[4,3-b]indole]
Dopamine receptors
  IC50: 16 nM

## O=C(NCCCCN1CC[C@H]2[C@H](C1)c1cc(F)ccc1N2c1ccc(F)cc1)c1ccccc1 (relative stereo) [Example 13, (±) 2-(N--benzoyl-1'-amino-n-but-4'-yl)]
[1]; [5]
  ED50: 0.1 to 0.3 mg/kg
[1]; [6]
  ED50: 0.01 to 0.03 mg/kg
[1]; [7]
  ED50: 0.3 to 1 mg/kg

## CC(=O)NCCCN1CC[C@H]2[C@H](C1)c1cc(F)ccc1N2c1ccc(F)cc1 (relative stereo) [Example 7, (±) 2-(N--acetyl-1'-amino-n-prop-3-yl)]
Dopamine receptors
  IC50: 10 nM

## CC(=O)NCCCCN1CC[C@H]2[C@H](C1)c1cc(F)ccc1N2c1ccc(F)cc1 (relative stereo) [Example 3, (±)2-(N-acetyl-1'-amino-n-but-4'-yl)-5-(p-fluorophenyl)-8-fluoro-2,3,4,4a,5,9b-hexahydro-trans-4a,9b-1(H)-pyrido[4,3-b]indole]
[1]; [5]
  ED50: 0.02 mg/kg
[1]; [6]
  ED50: 0.006 mg/kg
[1]; [7]
  ED50: 0.66 mg/kg
Dopamine receptors
  IC50: 13 nM

## NCCCCN1CC[C@H]2[C@H](C1)c1cc(F)ccc1N2c1ccc(F)cc1 (relative stereo) [Example 2, (±)2-(1'-amino-n-but-4'-yl)-5-(p-fluorophenyl)-8-fluoro-2,3,4,4a,5,9b-hexahydro-trans-4a,9b-1(H)-pyrido[4,3-b]indole]
[1]; [5]
  ED50: 17.7 mg/kg
[1]; [6]
  ED50: 4.5 to 11.5 mg/kg
[1]; [7]
  ED50: 17.7 mg/kg
Dopamine receptors
  IC50: 24 nM

## COc1ccccc1C(=O)NCCCCN1CC[C@H]2[C@H](C1)c1cc(F)ccc1N2c1ccc(F)cc1 (relative stereo) [Example 15, (±) 2-[N--(o-methoxybenzoyl)-1'-amino-n-but-4'-yl]]
[1]; [5]
  ED50: 0.45 mg/kg
[1]; [6]
  ED50: 0.18 mg/kg
[1]; [7]
  ED50: 1 mg/kg
Dopamine receptors
  IC50: 14 nM

## CCOC(=O)NCCCCN1CC[C@H]2[C@H](C1)c1cc(F)ccc1N2c1ccc(F)cc1 (relative stereo) [Example 14, (±) 2-(N--ethoxycarbonyl-1'-amino-n-but-4'-yl)]
[1]; [5]
  ED50: 0.05 mg/kg
[1]; [6]
  ED50: 0.02 mg/kg
[1]; [7]
  ED50: 0.3 mg/kg
Dopamine receptors
  IC50: 11 nM

## CC(=O)NCCCCCCN1CC[C@H]2[C@H](C1)c1cc(F)ccc1N2c1ccc(F)cc1 (relative stereo) [Example 9, (±) 2-(N--acetyl-1'-amino-n-hex-6'-yl)]
[1]; [5]
  ED50: 0.023 mg/kg
[1]; [6]
  ED50: 0.002 mg/kg
[1]; [7]
  ED50: 0.032 mg/kg
Dopamine receptors
  IC50: 8 nM
